In patent US12679878B2, “CRF2 receptor agonists and their use in therapy” (SANOFI, priority 2020, dated 2026) one finds EC50 and CRF1/CRF2 ratio data, which are given here for 5 compounds.

The target in one experiment is T1, human CRF2α receptor (Homo sapiens, UniProt Q13324).
T1 construct: expressed in transfected cells; host or cells: TeloHEAC
T1 sequence (Q13324 1-411): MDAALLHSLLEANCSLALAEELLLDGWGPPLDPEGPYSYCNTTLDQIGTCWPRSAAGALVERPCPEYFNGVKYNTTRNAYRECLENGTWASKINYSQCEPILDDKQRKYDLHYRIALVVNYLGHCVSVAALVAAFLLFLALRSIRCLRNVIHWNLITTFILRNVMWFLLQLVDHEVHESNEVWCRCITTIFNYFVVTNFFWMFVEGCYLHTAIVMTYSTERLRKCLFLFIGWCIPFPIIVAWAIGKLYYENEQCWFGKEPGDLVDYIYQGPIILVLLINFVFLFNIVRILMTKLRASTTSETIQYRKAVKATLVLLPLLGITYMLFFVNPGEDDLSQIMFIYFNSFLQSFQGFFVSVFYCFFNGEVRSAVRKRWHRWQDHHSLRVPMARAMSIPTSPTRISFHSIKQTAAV
In words: cAMP agonism at human CRF2α receptor in TeloHEAC cells, FA modified peptides (Example 19.9). The format is cell-based. The conditions noted are these: 0% HSA, relative to urocortin 2. The essentials: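 Efficacy and EC50 are referenced to 100 nM urocortin 2 as 100%, with cAMP measured as the 665/620 nm HTRF ratio after 1 h at room temperature. Compounds (0.5 mM DMSO stock, 16 twofold dilutions) acted 30 min at 37 °C on CRF2α-expressing TeloHEAC cells, buffer containing IBMX and 0% or 0.2% HSA.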

For a further experiment, the target named is T2, CRF1R receptor (Homo sapiens, UniProt P34998).
T2 construct: host or cells: CHO-K1 clone 2
T2 sequence (P34998 24-415): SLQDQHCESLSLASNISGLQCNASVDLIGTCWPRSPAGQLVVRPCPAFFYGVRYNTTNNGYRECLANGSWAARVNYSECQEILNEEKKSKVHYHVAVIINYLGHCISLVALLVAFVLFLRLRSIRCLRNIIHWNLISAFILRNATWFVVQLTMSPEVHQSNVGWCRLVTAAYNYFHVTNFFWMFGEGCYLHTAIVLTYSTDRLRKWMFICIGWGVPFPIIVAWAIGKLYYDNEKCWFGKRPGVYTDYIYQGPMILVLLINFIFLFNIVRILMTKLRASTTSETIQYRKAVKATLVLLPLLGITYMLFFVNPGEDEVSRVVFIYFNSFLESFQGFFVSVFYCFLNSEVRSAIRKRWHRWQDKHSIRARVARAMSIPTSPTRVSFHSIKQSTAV
Put plainly: cAMP activity at anti-target CRF1R, CHO-K1 cell line clone 2 (Example 19.10). In kind it is cell-based. The conditions noted are these: ratio of CRF1 EC50 to CRF2 EC50. The essentials:
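The cAMP read-out used the same protocol as the previous assay, except that Sauvagine at 100 nM set the 100% activation control. Cells were CHO-K1 clone 2 overexpressing CRF1R, cultured in F12 medium with 10% FBS and G418 and stored frozen until use.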

The EC50 is the concentration that produces a half-maximal response. Low values mean higher potency in that assay, high ones lower potency in that assay.

Each structure is given as a SMILES string. Starred links: 1 amine or outer side, 2 acyl side, 3 side chain; linkers in the order of their positions; H or OH if unused. Non-standard residues stand in square brackets, D forms with d. Residues, ends and D or L forms follow the SMILES beside them. Groups on a side chain read outwards from the residue. *: point of attachment. γGlu = O=C(O)[C@H](CCC(=O)[*:2])N[*:1]; Palmitoyl = CCCCCCCCCCCCCCCC(=O)*; Aib = CC(C)(N)C(=O)O

`CCCCCCCCCCCCCCCC(=O)N[C@@H](CCC(=O)NCCCC[C@H](NC(=O)[C@H](CC(C)C)NC(=O)[C@H](CCCCN)NC(=O)[C@@H](NC(=O)[C@@H]1CCCN1C(=O)[C@H](NC(=O)[C@H](CC(=O)O)NC(=O)[C@H](CC(C)C)NC(=O)[C@H](CO)NC(=O)[C@H](CC(C)C)NC(=O)[C@@H](NC(=O)[C@@H](N)[C@@H](C)CC)C(C)C)C(C)C)[C@@H](C)CC)C(=O)N[C@@H](CCC(N)=O)C(=O)N[C@H](C(=O)N[C@@H](CC(C)C)C(=O)N[C@@H](CC(C)C)C(=O)N[C@@H](CCCCN)C(=O)N[C@@H](CCC(N)=O)C(=O)N[C@@H](CCC(=O)O)C(=O)N[C@@H](CCCNC(=N)N)C(=O)N[C@@H](CCC(N)=O)C(=O)N[C@@H](CCCCN)C(=O)N[C@@H](CCCCN)C(=O)NC(C)(C)C(=O)N[C@@H](CCCNC(=N)N)C(=O)N[C@@H](CCC(N)=O)C(=O)N[C@@H](CCCCN)C(=O)N[C@@H](C)C(=O)N[C@@H](CCC(=O)O)C(=O)N[C@@H](CCCCN)C(=O)N[C@@H](CC(N)=O)C(=O)N[C@@H](CCCCN)C(=O)N[C@@H](CCC(N)=O)C(=O)N[C@H](C(=O)N[C@@H](CC(C)C)C(=O)N[C@@H](C)C(=O)N[C@@H](CCC(N)=O)C(=O)N[C@H](C(N)=O)C(C)C)[C@@H](C)CC)[C@@H](C)CC)C(=O)O` [compound 209] (H-IVLSLD[dV]PIKLK([γGlu-Palmitoyl])QILLKQERQKK[Aib]RQKAEKNKQILAQV-NH2; N-terminus assumed) showed a half-maximal effective concentration (EC50) at human CRF2α receptor of 8.62 nM. Also, on CRF1R receptor, the CRF1/CRF2 ratio amounted to 3.

The compound `CCCCCCCCCCCCCCCC(=O)N[C@@H](CCC(=O)NCCCC[C@H](NC(=O)[C@H](CC(C)C)NC(=O)[C@H](CCCCN)NC(=O)[C@@H](NC(=O)[C@@H]1CCCN1C(=O)[C@H](NC(=O)[C@H](CC(=O)O)NC(=O)[C@H](CC(C)C)NC(=O)[C@H](CO)NC(=O)[C@H](CC(C)C)NC(=O)[C@@H](NC(=O)[C@@H](N)[C@@H](C)CC)C(C)C)C(C)C)[C@@H](C)CC)C(=O)N[C@@H](CCC(N)=O)C(=O)N[C@H](C(=O)N[C@@H](CC(C)C)C(=O)N[C@@H](CC(C)C)C(=O)N[C@@H](CCCCN)C(=O)N[C@@H](CCC(N)=O)C(=O)N[C@@H](CCC(=O)O)C(=O)N[C@@H](CCCNC(=N)N)C(=O)N[C@@H](CCC(N)=O)C(=O)N[C@@H](CCCCN)C(=O)N[C@@H](CCCCN)C(=O)N[C@@H](CCC(N)=O)C(=O)N[C@@H](CCCNC(=N)N)C(=O)N[C@@H](CCC(=O)O)C(=O)N[C@@H](CCC(N)=O)C(=O)N[C@@H](C)C(=O)N[C@@H](CCC(=O)O)C(=O)N[C@@H](CCCCN)C(=O)N[C@@H](CC(N)=O)C(=O)N[C@@H](CCCCN)C(=O)N[C@@H](CCC(N)=O)C(=O)N[C@H](C(=O)N[C@@H](CC(C)C)C(=O)N[C@@H](CCC(=O)O)C(=O)N[C@@H](CCC(N)=O)C(=O)N[C@H](C(N)=O)C(C)C)[C@@H](C)CC)[C@@H](C)CC)C(=O)O` [compound 212] (H-IVLSLD[dV]PIKLK([γGlu-Palmitoyl])QILLKQERQKKQREQAEKNKQILEQV-NH2; N-terminus assumed) gave an EC50 at human CRF2α receptor of 1.23 nM. Also, the CRF1/CRF2 ratio on CRF1R receptor amounted to 1.

In turn, `CCCCCCCCCCCCCCCC(=O)N[C@@H](CCC(=O)NCCCC[C@H](NC(=O)[C@H](CC(C)C)NC(=O)[C@H](CCCCN)NC(=O)[C@@H](NC(=O)[C@@H]1CCCN1C(=O)[C@H](NC(=O)[C@H](CC(=O)O)NC(=O)[C@H](CC(C)C)NC(=O)[C@H](CO)NC(=O)[C@H](CC(C)C)NC(=O)[C@@H](NC(=O)[C@@H](N)[C@@H](C)CC)C(C)C)C(C)C)[C@@H](C)CC)C(=O)N[C@@H](CCC(N)=O)C(=O)N[C@H](C(=O)N[C@@H](CC(C)C)C(=O)N[C@@H](CC(C)C)C(=O)N[C@@H](CCCCN)C(=O)N[C@@H](CCC(N)=O)C(=O)N[C@@H](CCC(=O)O)C(=O)N[C@@H](CCCNC(=N)N)C(=O)N[C@@H](CCC(N)=O)C(=O)N[C@@H](CCCCN)C(=O)N[C@@H](CCCCN)C(=O)N[C@@H](CCC(N)=O)C(=O)N[C@@H](CCCNC(=N)N)C(=O)N[C@@H](CCC(N)=O)C(=O)N[C@@H](CCC(N)=O)C(=O)N[C@@H](C)C(=O)N[C@@H](CCC(=O)O)C(=O)N[C@@H](CCCCN)C(=O)N[C@@H](CC(N)=O)C(=O)N[C@@H](CCCCN)C(=O)N[C@@H](CCC(N)=O)C(=O)N[C@H](C(=O)N[C@@H](CC(C)C)C(=O)N[C@@H](C)C(=O)N[C@@H](CCC(N)=O)C(=O)N[C@H](C(N)=O)C(C)C)[C@@H](C)CC)[C@@H](C)CC)C(=O)O` [compound 214] (H-IVLSLD[dV]PIKLK([γGlu-Palmitoyl])QILLKQERQKKQRQQAEKNKQILAQV-NH2; N-terminus assumed) yielded a concentration for a half-maximal effect (EC50) at human CRF2α receptor of 4.15 nM. For the same compound, at CRF1R receptor, the CRF1/CRF2 ratio is on record as 1.

In the case of `CCCCCCCCCCCCCCCC(=O)N[C@@H](CCC(=O)NCCCC[C@H](NC(=O)[C@H](CC(C)C)NC(=O)CNC(=O)[C@@H](NC(=O)[C@@H]1CCCN1C(=O)[C@H](NC(=O)[C@H](CC(=O)O)NC(=O)[C@H](CC(C)C)NC(=O)[C@H](CO)NC(=O)[C@H](CC(C)C)NC(=O)[C@@H](NC(=O)[C@@H](N)[C@@H](C)CC)C(C)C)C(C)C)[C@@H](C)CC)C(=O)N[C@@H](CCC(N)=O)C(=O)N[C@H](C(=O)N[C@@H](CC(C)C)C(=O)N[C@@H](CC(C)C)C(=O)N[C@@H](CCCCN)C(=O)N[C@@H](CCC(N)=O)C(=O)N[C@@H](CCC(=O)O)C(=O)N[C@@H](CCCNC(=N)N)C(=O)N[C@@H](CCC(N)=O)C(=O)N[C@@H](CCCCN)C(=O)N[C@@H](CCCCN)C(=O)NC(C)(C)C(=O)N[C@@H](CCCNC(=N)N)C(=O)N[C@@H](CCC(=O)O)C(=O)N[C@@H](CCC(N)=O)C(=O)N[C@@H](C)C(=O)N[C@@H](CCC(=O)O)C(=O)N[C@@H](CCCCN)C(=O)N[C@@H](CC(N)=O)C(=O)N[C@@H](CCCCN)C(=O)N[C@@H](CCCNC(=N)N)C(=O)N[C@H](C(=O)N[C@@H](CC(C)C)C(=O)N[C@@H](CCC(=O)O)C(=O)N[C@@H](CCCNC(=N)N)C(=O)N[C@H](C(N)=O)C(C)C)[C@@H](C)CC)[C@@H](C)CC)C(=O)O` [compound 218] (H-IVLSLD[dV]PIGLK([γGlu-Palmitoyl])QILLKQERQKK[Aib]REQAEKNKRILERV-NH2), at human CRF2α receptor, the 50% effective concentration (EC50) was 1.58 nM. The CRF1/CRF2 ratio at CRF1R receptor came out at 4.

On human CRF2α receptor, `CCCCCCCCCCCCCCCC(=O)N[C@@H](CCC(=O)NCCCC[C@H](NC(=O)[C@H](CC(C)C)NC(=O)[C@H](CCCCN)NC(=O)[C@@H](NC(=O)[C@@H]1CCCN1C(=O)[C@H](NC(=O)[C@H](CC(=O)O)NC(=O)[C@H](CC(C)C)NC(=O)[C@H](CO)NC(=O)[C@H](CC(C)C)NC(=O)[C@@H](NC(=O)[C@@H](N)[C@@H](C)CC)C(C)C)C(C)C)[C@@H](C)CC)C(=O)N[C@@H](CCC(N)=O)C(=O)N[C@H](C(=O)N[C@@H](CC(C)C)C(=O)N[C@@H](CC(C)C)C(=O)N[C@@H](CCCCN)C(=O)N[C@@H](CCC(N)=O)C(=O)N[C@@H](C)C(=O)N[C@@H](CCCNC(=N)N)C(=O)N[C@@H](CCC(N)=O)C(=O)N[C@@H](CCCCN)C(=O)NC(C)(C)C(=O)N[C@@H](CCC(N)=O)C(=O)N[C@@H](CCCNC(=N)N)C(=O)N[C@@H](C)C(=O)N[C@@H](CCC(N)=O)C(=O)N[C@@H](C)C(=O)N[C@@H](CCC(=O)O)C(=O)N[C@@H](CCCCN)C(=O)N[C@@H](CC(N)=O)C(=O)N[C@@H](CCCCN)C(=O)N[C@@H](CCCNC(=N)N)C(=O)N[C@H](C(=O)N[C@@H](CC(C)C)C(=O)N[C@@H](CCC(=O)O)C(=O)N[C@@H](CCCNC(=N)N)C(=O)N[C@H](C(N)=O)C(C)C)[C@@H](C)CC)[C@@H](C)CC)C(=O)O` [compound 219] (H-IVLSLD[dV]PIKLK([γGlu-Palmitoyl])QILLKQARQK[Aib]QRAQAEKNKRILERV-NH2) showed an EC50 of 5.98 nM. The CRF1/CRF2 ratio at CRF1R receptor worked out at 2.
